Assay results published in patent US6900216B2, “Dihydroimidazo[2,1-b]thiazole and dihydro-5h-thiazolo[3,2-A]pyrimidines as antidepressant agents” (Knoll GmbH, priority 2000, dated 2005).

Assays:
5-HT reuptake sites = target: T1, 5-HT reuptake sites (Rattus norvegicus, UniProt P31652); test: 5-HT uptake: displacement of [3H]citalopram from 5-HT reuptake sites, rat frontal cortical membranes; format: binding; details: for inhibition at 1 µM: 10^−6 M test compound, single determination, [3H]citalopram; for Ki: [3H]citalopram 1.3 nM, rat frontal cortical membranes, fit to data from three experiments
T1 construct: Frontal cortical tissue from the brains of male Charles River rats; from tissue; host or cells: rat frontal cortical membranes
Description: Frontal cortical tissue from the brains of male Charles River rats weighing 150-250 g was homogenised in ice-cold 50 mM Tris-HCl, pH 7.4 (when measured at 25° C.) containing 120 mM sodium chloride and 5 mM potassium chloride (Tris buffer; 1:30 w/v) and centrifuged at 40,000 g for 10 minutes. The supernatant was discarded and the pellet rehomogenised in Tris buffer, 1:60 w/v, and centrifuged at 40,000 g for 10 minutes. This step was repeated a further time. The final pellet was resuspended in 50 mM Tris-HCl, pH 7.4 containing 120 mM sodium chloride and 5 mM potassium chloride (equivalent to 3.125 mg wet weight of tissue/ml) and used immediately in the binding assay. All centrifugations were performed at 4° C.
Membranes (400 μl; equivalent to 1.25 mg wet weight of tissue/tube) were incubated with 50 μl [^3H]citalopram at a single concentration of 1.3 nM and 50 μl of distilled water (total binding) or 50 μl of test compound (at a single concentration of 10^−6 M or at 10 concentrations ranging from 10^−11-10^−3 M) or 50 μl of paroxetine (0.5 μM; non-specific binding) for 1 h at 27° C. Membrane bound radioactivity was recovered by filtration under vacuum through Skatron 11734 filters presoaked in 0.5% PEI using a Skatron Cell Harvester. Filters were then washed in ice-cold 50 mM Tris-HCl buffer, pH 7.4 (at 25° C., wash setting 9,9,0). The scored filter paper discs were punched out into vials, scintillation fluid added and radioactivity determined by liquid scintillation counting.
(§1) For each of these tests measuring the ability of compounds of Formula I to displace standard ligands from 5-HT1A receptors and 5-hydroxytryptamine (5-HT) and noradrenaline (NA) reuptake sites and muscarinic receptors in vitro, the percentage displacement of specific binding of tritiated ligand by 10^−6 M test compound was calculated in the following way.
(§2) Firstly, specific binding of tritiated ligand in the absence (A) and presence (B) of test compound was determined:
(§3) In the absence of compound: A(dpm)=Total binding (dpm)−Non-specific binding (dpm) In the presence of compound (10^−6 M): B(dpm)=Binding at 10^−6M (dpm)−Non-specific binding (dpm)
(§4) The specific binding of tritiated ligand in the presence (B) of compound was then converted to a percentage of specific binding of tritiated ligand in the absence (A) of compound: % Specific binding at 10^−6 M=B(dpm)/A(dpm)×100
(§5) The percentage displacement of specific binding of tritiated ligand by the test compound (10^−6 M) was then obtained by subtraction of the percentage specific binding in the presence of compound from the percentage specific binding in the absence of compound, which is taken as the maximum binding and so equals 100%:
(§6) % Displacement at 10^−6 M=100−% Specific binding at 10^−6 M.
(§7) In some cases, displacement curves were then produced for compounds which displaced ≧50% of specific binding of the tritiated ligand at 10^−6 M using a range of concentrations of the compound. The Ki was then calculated by simultaneous fitting using equations derived from the Feldman equations by robust non-linear regression to data from three experiments simultaneously (De Lean et al., 1978; Munson and Rodbard, 1980; Feldman, 1992). Munson P J and Rodbard D. Ligand: a versatile computerised approach for characterisation of ligand binding systems. Anal Biochem 1980; 107: 220. Feldman HA. Mathematical theory of complex ligand binding systems at equilibrium: some methods for parameter fitting. Anal Biochem 1992: 48, 317. De Lean A, Munson P J and Rodbard D. Simultaneous analysis of families of sigmoidal curves: application to bioassay, radioligand assay, and physiological dose-response curves. Am J Physiol 1978: 235 (2), E97-E102.
The results obtained in the above tests for 5-HT1A binding and 5-HT and NA uptake and muscarinic binding for the final products of Examples 1-39 hereinafter are given in Table 1 below. Kis are in nM. % Figures are for % displacement at 10^−6 M for a single determination.

muscarinic receptors = test: Muscarinic binding: displacement of [3H]N-methylscopolamine, rat frontal cortical membranes; details: for Muscarinic % displacement at 10^−6 M: 10^−6 M test compound, single determination, [3H]N-methylscopolamine; for Ki: [3H]N-methylscopolamine 0.15 nM, rat frontal cortical membranes
Description: Frontal cortical tissue from the brains of male Charles River rats weighing 150-250 g was homogenised in ice-cold 20 mM HEPES buffer, pH 7.5 (measured at 25° C.) containing 100 mM sodium chloride and 10 mM magnesium chloride (1:10 w/v) using a Polytron PT3100 (speed setting 21,700 rpm, 3×5 seconds) and centrifuged at 49,500 g for 30 minutes at 4° C. The supernatant was discarded and the pellet rehomogenised in 20 mM HEPES buffer, pH 7.5 containing 100 mM sodium chloride and 10 mM magnesium chloride (equivalent to 12.5 mg wet weight of tissue/ml). Membranes were stored at −80° C. until required.
Membranes were thawed, diluted 1:10 in ice-cold 20 mM HEPES buffer, pH 7.5 containing 100 mM sodium chloride and 10 mM magnesium chloride and homogenised using a Polytron PT3100 as above. Diluted membranes (200 μl; equivalent to 0.25 mg wet weight of tissue/tube) were incubated with 200 μl of 20 mM HEPES buffer, pH 7.5 containing 100 mM sodium chloride and 10 mM magnesium chloride and 50 μl [^3H]N-methylscopolamine at a single concentration of 0.15 nM and 50 μl distilled water (total binding) or 50 μl test compound (at a single concentration of 10^−6 M or at 10 concentrations ranging from 10^−11-10^−3 M) or 50 μl atropine sulphate (1 μM; non-specific binding) for 30 min at 30° C. Membrane bound radioactivity was recovered by filtration under vacuum through Skatron 11734 filters using a Skatron cell harvester. Filters were rapidly washed with ice-cold 20 mM HEPES buffer, pH 7.5 (wash 1,2 at setting 5,5). The scored filter paper discs were punched out into vials, scintillation fluid added and radioactivity determined by liquid scintillation counting.
as §1, §2, §3, §4, §5, §6
as §7, with “E97-E102. […]” for “E97-E102.”

T1 sequence (P31652 whole entry): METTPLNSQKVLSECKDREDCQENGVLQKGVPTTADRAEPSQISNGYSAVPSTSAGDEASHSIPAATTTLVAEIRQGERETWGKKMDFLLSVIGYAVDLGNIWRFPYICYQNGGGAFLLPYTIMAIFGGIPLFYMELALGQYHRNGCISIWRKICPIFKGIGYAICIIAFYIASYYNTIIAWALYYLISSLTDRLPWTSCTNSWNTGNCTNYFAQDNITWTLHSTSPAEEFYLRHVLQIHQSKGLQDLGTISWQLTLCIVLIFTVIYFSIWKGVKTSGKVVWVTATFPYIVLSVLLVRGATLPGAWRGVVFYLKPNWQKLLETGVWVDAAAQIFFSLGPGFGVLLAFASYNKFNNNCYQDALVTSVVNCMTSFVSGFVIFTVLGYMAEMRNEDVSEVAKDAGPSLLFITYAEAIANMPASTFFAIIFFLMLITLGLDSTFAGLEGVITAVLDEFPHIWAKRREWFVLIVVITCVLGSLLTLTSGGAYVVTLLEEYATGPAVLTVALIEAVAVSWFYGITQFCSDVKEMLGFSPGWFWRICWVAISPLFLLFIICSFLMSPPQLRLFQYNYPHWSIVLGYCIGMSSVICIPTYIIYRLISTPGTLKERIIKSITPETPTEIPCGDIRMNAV

SMILES	Muscarinic % displacement at 10^−6 M (muscarinic receptors)	melting point	Ki (5-HT reuptake sites)	inhibition at 1 µM (5-HT reuptake sites)	Ki (muscarinic receptors)
CC1=C(c2cccc3sc(C)cc23)N2CCN=C2S1.Cl [Example 33, 2-methyl-3-(2-methylbenzo[b]thiophen-4-yl)-5,6-dihydroimidazo[2,1-b]thiazole hydrochloride]	38%	271 °C	–	62%	–
Br.CC1(c2cc3cc(F)ccc3s2)CSC2=NCCN21 (centres unmarked) [Example 27, 3-(5-fluorobenzo[b]thiophen-2-yl)-3-methyl-5,6-dihydroimidazo[2,1-b]thiazole hydrobromide]	−1%	–	–	85%	–
OCC1=C(c2cc3c(Cl)cccc3s2)N2CCN=C2S1 [Example 4, [3-(4-chlorobenzo[b]thiophen-2-yl)-5,6-dihydroimidazo[2,1-b]thiazol-2-yl]methanol]	0%	170 to 172 °C	36 nM	–	–
Br.CC1=C(c2cc3c(F)cccc3s2)N2CCN=C2S1 [Example 7, 3-(4-fluorobenzo[b]thiophen-2-yl)-2-methyl-5,6-dihydroimidazo[2,1-b]thiazole hydrobromide]	17%	224 to 226 °C	127 nM	–	–
CSC1=C(c2cccc3sccc23)N2CCN=C2S1.Cl [Example 22, 3-(benzo[b]thiophen-4-yl)-2-(methylthio)-5,6-dihydroimidazo[2,1-b]thiazole hydrochloride]	–	95 to 105 °C	85 nM	–	439 nM
Br.CC1=C(c2cc3c(Cl)c(Cl)ccc3s2)N2CCN=C2S1 [Example 24, 3-(4,5-dichlorobenzo[b]thiophen-2-yl)-2-methyl-5,6-dihydroimidazo[2,1-b]-thiazole hydrobromide]	−10%	244 to 246 °C	–	97%	–
C1=C(c2cccc3sccc23)N2CCN=C2S1.Cl [Example 2, 3-(benzo[b]thiophen-4-yl)-5,6-dihydroimidazo[2,1-b]thiazole hydrochloride]	20%	246 to 249 °C	45 nM	–	–
Br.CCC1=C(c2cc3cc(Cl)ccc3s2)N2CCN=C2S1 [Example 11, 3-(5-chlorobenzo[b]thiophen-2-yl)-2-ethyl-5,6-dihydroimidazo[2,1-b]thiazole hydrobromide]	44%	282 to 284 °C	–	97%	–
Br.CC1=C(c2cc3ccccc3s2)N2CCN=C2S1 [Example 6, 3-(benzo[b]thiophen-2-yl)-2-methyl-5,6-dihydroimidazo[2,1-b]thiazole hydrobromide]	−2%	257 to 259 °C (dec.)	44.4 nM	–	–
C=CC1=C(c2cccc3sccc23)N2CCN=C2S1.Cl [Example 39, 3-(benzo[b]thiophen-4-yl)-2-vinyl-5,6-dihydroimidazo[2,1-b]thiazole hydrochloride]	–	195 to 197 °C	–	70%	–
Br.CC1=C(c2cccc3sccc23)N2CCN=C2S1 [Example 8, 3-(benzo[b]thiophen-4-yl)-2-methyl-5,6-dihydroimidazo[2,1-b]thiazole hydrobromide]	0%	–	275 nM	–	–

The next lines start with results.

Muscarinic % displacement at 10^−6 M (muscarinic receptors)	melting point	Ki (5-HT reuptake sites)	SMILES	inhibition at 1 µM (5-HT reuptake sites)	Ki (muscarinic receptors)
9%	285 °C	92 nM	Br.CC1=C(c2ccc3sccc3c2)N2CCN=C2S1 [Example 21, 3-(benzo[b]thiophen-5-yl)-2-methyl-5,6-dihydroimidazo[2,1-b]thiazole hydrobromide]	–	–
22%	–	16 nM	Br.Oc1cccc2sc(C3=CSC4=NCCN34)cc12 [Example 12, 2-(5,6-dihydroimidazo[2,1-b]thiazol-3-yl)benzo[b]thiophen-4-ol hydrobromide]	–	–
12%	246 to 248 °C	29.3 nM	Br.CC1=C(c2cc3c(Cl)cccc3s2)N2CCN=C2S1 [Example 10, 3-(4-chlorobenzo[b]thiophen-2-yl)-2-methyl-5,6-dihydroimidazo[2,1-b]thiazole hydrobromide]	–	–
9%	252 to 254 °C	213 nM	Br.CC1=C(c2ccc3ccsc3c2)N2CCN=C2S1 [Example 37, 3-(benzo[b]thiophen-6-yl)-2-methyl-5,6-dihydroimidazo[2,1-b]thiazole hydrobromide]	–	–
12%	265 to 267 °C	61 nM	Br.CC1=C(c2ccc(F)c3sccc23)N2CCN=C2S1 [Example 38, 3-(7-fluorobenzo[b]thiophen-4-yl)-2-methyl-5,6-dihydroimidazo[2,1-b]thiazole hydrobromide]	–	–
–	–	4.1 nM	CC(C)C1=C(c2ccc3sccc3c2)N2CCN=C2S1 [Example 29, 3-(benzo[b]thiophen-5-yl)-2-(1-methylethyl)-5,6-dihydroimidazo[2,1-b]-thiazole]	–	798 nM
13%	–	387 nM	CC1=C(c2cccc3sccc23)N2CCN=C2S1.Cl [Example 9, 3-(benzo[b]thiophen-4-yl)-2-methyl-5,6-dihydroimidazo[2,1-b]thiazole hydrochloride]	–	–
12%	–	–	CSC1=C(c2ccc3sccc3c2)N2CCN=C2S1 [Example 30, 3-(benzo[b]thiophen-5-yl)-2-(methylthio)-5,6-dihydroimidazo[2,1-b]thiazole]	95%	–
